Literature values as cited in patent US9669099B2, “Pine bark extract and black pepper essential oil with anti-inflammatory and anti-arthritic action and method of preparing same” (priority 2015, dated 2017).

Columns and labels:
leukotriene production = conditions: leukotriene as a mediator of inflammation
[1] = system: TNF-α (Tumor Necrosis Factor alpha); conditions: fibroblast cultures, all animals assessed

Compound | inhibitor of leukotriene production (leukotriene production) | also measured
C=CC(=C)CCC=C(C)C [β-myrcene] | effective as an inhibitor | 
CC1=CC=C(C(C)C)CC1 [α-terpinene] | effective as an inhibitor | 
CC1=CC[C@H]2C[C@@H]1C2(C)C [(−)-α-pinene] | effective as an inhibitor | 
C=C1CC/C=C(\C)CC[C@@H]2[C@@H]1CC2(C)C [Beta-caryophyllene] |  | inhibition of LPS-induced NF-kB activation (NF-kB activation): inhibit; inhibition of LPS-induced neutrophil migration (neutrophil migration): inhibit
C=C(C)[C@H]1CC=C(C)CC1 [limonene] |  | inhibition of TNF-α [1]: inhibition of TNF-α
CC(C)=CCC/C(C)=C/CO [geraniol] | effective as an inhibitor | 
CC1=CC[C@@H]2C[C@H]1C2(C)C [(+)-α-pinene] | effective as an inhibitor | 
CC1=CCCC(C)(C)C1C=O (stereo not drawn) [α-cyclocitral] | effective as an inhibitor | 
CC1=CCC(C(C)C)=CC1 [γ-terpinene] | effective as an inhibitor | 
CC1=C[C@@H](O)[C@@H]2C[C@H]1C2(C)C (relative stereo) [(+)-cis-verbenol] | effective as an inhibitor | 
C=C(C)C1CC=C(C)CC1 (single isomer, unassigned; (+)) [(+)-limonene] | effective as an inhibitor | 
C=CC(C)(O)CCC=C(C)C (racemic) [(±)-linalool] | effective as an inhibitor | 
CC1CCC(C(C)C)C(O)C1 (single isomer, unassigned; (-)) [(−)-menthol] | effective as an inhibitor | 
CC(C)=CCCC(C)=CC=O [citral] | effective as an inhibitor | 
C/C1=C\CC/C(C)=C/CC(C)(C)/C=C/C1 [Alpha-humulene] |  | inhibition of LPS-induced NF-kB activation (NF-kB activation): inhibit; inhibition of LPS-induced neutrophil migration (neutrophil migration): inhibit; prevention of production of proinflammatory cytokines TNF-a and IL-1b (TNF-a and IL-1b): ability to prevent; prevention of in vivo up-regulation of kinin B1 receptors (kinin B1 receptors): ability to prevent
